Results on 13 molecules are retold here after patent US4880807A, “Nicotinoylpiperazines useful for treatment of convulsions” (Institut De Recherches Chimiques et Biologiques Appliquees …, priority 1987, dated 1989).

Data set [1] concerns convulsions induced by supra maximal electroshock (MCE). The data set can be described thus: animal or person. Particulars: for ED50: Mus musculus, read-out: ED50 in respect of convulsions induced by MCE, per os, male mice, 30 min after administration, electrical stimulation of the cornea, dose protecting 50% of animals; for ED50 / ED50 in respect of convulsions induced by MCE: 0.5 h. Here is the method:
(§1) The anticonvulsant properties were investigated on male mice, thirty minutes after the oral administration of the substances to be studied, by the induction of convulsive seizures.
These seizures are caused either by the intraperitoneal injection of pentetrazole (125 mg/kg) or by electrical stimulation of the cornea (supra maximal electroshock, abbreviated to MCE).

Data set [2] can be described thus: oral toxicity in mice (LD50, mortality over 14 days). Particulars: mouse, in vivo, po. The procedure: The toxicity of the products to be studied was investigated by the oral administration, using an esophageal tube, of each of the said products to male mice with a body weight of 18 to 22 g, divided into groups each containing 10 to 20 animals. The mortality was recorded over a 14-day period.

The next data set concerns male mice. The data set can be described thus: in vivo. Type of data set: in vivo. Particulars: for TD50 (50% neurotoxic dose): per os, male mice, Rota-rod 30 min after administration, dose causing 50% of animals to fall, 30 min. The source says:
(§2) The animals (divided into groups each containing ten male mice per dose and per product) are installed on the rod and their fall is observed over the next two minutes.
A general note: Falling from the rotarod earlier than controls is read as motor impairment.

A further data set can be described thus: in vivo. The class given is in vivo. Particulars: mouse, po, per os, male mice, Rota-rod 30 min after administration, dose causing 50% of animals to fall, read-out: TD50 (50% neurotoxic dose).
From the text: as §2

Data set [3] has as its system convulsions induced by pentetrazole. The data set can be described thus: animal or person. Particulars: for ED50: Mus musculus, read-out: ED50 in respect of convulsions induced by PTZ, per os, male mice, 30 min after administration, pentetrazole 125 mg/kg i.p., dose protecting 50% of animals; for ED50 / ED50 in respect of convulsions induced by PTZ: 0.5 h.
From the text: as §1

[4] abbreviates: LD50 per os/ED50 per os, MCE convulsions.
Where [5] appears, read: TD50 per os/ED50 per os, MCE convulsions.
Setting [6] is: TD50 per os/ED50 per os, PTZ convulsions.
The mark [7] stands for this setting: LD50 per os/ED50 per os, PTZ convulsions.
Where [8] appears, read: LD50, oral (esophageal tube), male mice, groups of 10 to 20, 14 days, Table II.
The mark [9] stands for this setting: LD50, per os, male mice, repeated in Table IV.

SMILES strings stand for the structures. Like-named read-outs stand apart in the source and are kept apart here.

The LD50 is the dose at which mortality reaches 50%. What is called TD50 is the 50% point of the dose-response relation for the toxic effect studied. Take `Cc1ccccc1N1CCN(C(=O)c2cccnc2)CC1` [Ex. 13]: in data set [1] (setting [4]), the “Therapeutic index MCE (LD50/ED50)” value worked out at 5.0. For the same molecule, the ED50 in data set [1] (po) was determined as 200 mg/kg; in data set [3] (po), 161 mg/kg. Besides, the LD50 at 336 h in data set [2] was 1000 mg/kg. Further, the “Protection index MCE (TD50/ED50)” value in the data set with male mice (setting [5]) is listed as 4.0. In the data set on male mice (setting [6]), the “Protection index PTZ (TD50/ED50)” value is listed as 4.9. Also, the TD50 at 0.5 h in the data set “in vivo” (in vivo) was 800 mg/kg. Moreover, the “Therapeutic index PTZ (LD50/ED50)” value in data set [3] (setting [7]) was found to be 6.2.

As for `Cc1ccccc1N1CCN(C(=O)c2cccnc2)CC1` [Ex. 14], in data set [1] (mouse, in vivo, po), the “Therapeutic index MCE (LD50/ED50)” value is given as less than 5.0. In addition, in data set [1] (po), the “ED50 in respect of convulsions induced by MCE” value (shortened to “ED50 … by MCE”) is given as greater than 200 mg/kg. The molecule also gave a 50% lethal dose (LD50) at 336 h in data set [2] (setting [8]) greater than 1000 mg/kg. Also, the LD50 at 336 h in data set [2] (setting [9]) was greater than 1000 mg/kg. In the data set on male mice (mouse, in vivo, po), the “Protection index MCE (TD50/ED50)” value was less than 3.0 and the “Protection index PTZ (TD50/ED50)” value was 5.9. Besides, in the data set “in vivo” (rota-rod), the TD50 at 0.5 h was determined as 635 mg/kg. Further, in data set [3] (mouse, in vivo, po), the “Therapeutic index PTZ (LD50/ED50)” value is given as greater than 10.0. Further, the “ED50 in respect of convulsions induced by PTZ” value (shortened to “ED50 … by PTZ”) in data set [3] (po) stood at 107 mg/kg.

Turning to `COc1cccc(N2CCN(C(=O)c3cccnc3)CC2)c1` [Ex. 15], the ED50 is greater than 200 mg/kg in data set [1] (po) and 183 mg/kg in data set [3] (po). For the same molecule, in data set [2] (setting [8]), the LD50 at 336 h was greater than 1000 mg/kg.

As for `COc1ccc(N2CCN(C(=O)c3cccnc3)CC2)cc1` [Ex. 16], the ED50 in data set [1] (po) is greater than 200 mg/kg; in data set [3] (po), 120 mg/kg. Further, the LD50 at 336 h in data set [2] (setting [8]) is greater than 1000 mg/kg.

On to `CCOc1cccc(N2CCN(C(=O)c3cccnc3)CC2)c1` [Ex. 18], for which the “Therapeutic index MCE (LD50/ED50)” value in data set [1] (setting [4]) is 4.6. Further, the values for the ED50 in data set [1] (po) and in data set [3] (po) were 118 mg/kg and 72 mg/kg, respectively. Moreover, the LD50 at 336 h in data set [2] (setting [8]) and in data set [2] (setting [9]) was 540 mg/kg each time. Moreover, the “Protection index MCE (TD50/ED50)” value with male mice (mouse, in vivo, po) was 2.5. Further, the “Protection index PTZ (TD50/ED50)” value in the data set on male mice (mouse, in vivo, po) is listed as 4.0. The TD50 at 0.5 h in “in vivo” (rota-rod) came to 291 mg/kg. For the same molecule, the “Therapeutic index PTZ (LD50/ED50)” value in data set [3] (setting [7]) was 7.5.

On to `CCOc1cccc(N2CCN(C(=O)c3cccnc3)CC2)c1` [Ex. 19], for which the “Therapeutic index MCE (LD50/ED50)” value in data set [1] (setting [4]) worked out at 6.7. The “ED50 … by MCE” value in data set [1] (po) is listed as 150 mg/kg. Besides, in the data set on male mice (mouse, in vivo, po), the “Protection index MCE (TD50/ED50)” value is reported as 1.7 and the “Protection index PTZ (TD50/ED50)” value is listed as 1.8. In addition, the “TD50 (50% neurotoxic dose)” value in the data set with male mice is 250 mg/kg. Further, the “Therapeutic index PTZ (LD50/ED50)” value in data set [3] (mouse, in vivo, po) was 7.0. Besides, the “ED50 … by PTZ” value in data set [3] (po) was 142 mg/kg.

Take `CC(=O)c1ccc(N2CCN(C(=O)c3cccnc3)CC2)cc1` [Ex. 20]: the ED50 in data set [1] (po) and in data set [3] (po) was greater than 200 mg/kg each time. This molecule also came in with a median lethal dose (LD50) at 336 h in data set [2] (setting [8]) greater than 1000 mg/kg.

For `Cc1cc(Cl)ccc1N1CCN(C(=O)c2cccnc2)CC1` [Ex. 22, 4-(4-chloro-2-methylphenyl)-1-nicotinoylpiperazine], in data set [1] (setting [4]), the “Therapeutic index MCE (LD50/ED50)” value was 6.2. Also, the “ED50 … by MCE” value in data set [1] (po) amounted to 87 mg/kg. The 50% lethal dose (LD50) at 336 h in data set [2] (setting [8]) and in data set [2] (setting [9]) was 540 mg/kg in each case. Further, the “Protection index MCE (TD50/ED50)” value in the data set with male mice (setting [5]) amounted to 3.4. For the same molecule, the “Protection index PTZ (TD50/ED50)” value with male mice (setting [6]) is 5.4. Further, in the data set with male mice, the “TD50 (50% neurotoxic dose)” value worked out at 300 mg/kg. Moreover, in data set [3] (setting [7]), the “Therapeutic index PTZ (LD50/ED50)” value is reported as 9.8. Besides, the “ED50 … by PTZ” value in data set [3] (po) came to 55 mg/kg.

Turning to `Cc1ccc(Cl)cc1N1CCN(C(=O)c2cccnc2)CC1` [Ex. 24, 4-(5-chloro-2-methylphenyl)-1-nicotinoylpiperazine], the “Therapeutic index MCE (LD50/ED50)” value in data set [1] (setting [4]) is greater than 12.0. Moreover, the ED50 in data set [1] (po) came out at 83 mg/kg; in data set [3] (po) it was 63 mg/kg. Besides, the 50% lethal dose (LD50) at 336 h in data set [2] (setting [8]) and in data set [2] (setting [9]) was greater than 1000 mg/kg each time. In the data set with male mice (setting [5]), the “Protection index MCE (TD50/ED50)” value stood at 6.3. The “Protection index PTZ (TD50/ED50)” value with male mice (setting [6]) is given as 8.3. Besides, the TD50 at 0.5 h in “in vivo” (rota-rod) came out at 525 mg/kg. Moreover, in data set [3] (setting [7]), the “Therapeutic index PTZ (LD50/ED50)” value is greater than 15.9.

Consider `Cc1cccc(Cl)c1N1CCN(C(=O)c2cccnc2)CC1` [Ex. 26], for which the ED50 in data set [1] (po) and in data set [3] (po) was greater than 200 mg/kg throughout. The 50% lethal dose (LD50) at 336 h in data set [2] (setting [8]) was greater than 1000 mg/kg.

Consider `O=C(c1cccnc1)N1CCN(c2ccccc2)CC1` [Ex. 27], for which the values for the ED50 in data set [1] (po) and in data set [3] (po) were greater than 200 mg/kg and 156 mg/kg, respectively. This molecule showed an LD50 at 336 h in data set [2] (setting [8]) greater than 1000 mg/kg.

The molecule `Cc1cccc(C)c1N1CCN(C(=O)c2cccnc2)CC1` [Ex. 30] came in with a median lethal dose (LD50) at 336 h in data set [2] (setting [8]) greater than 1000 mg/kg. Moreover, the ED50 in data set [3] (po) worked out at 138 mg/kg.

As to `CN1C(=O)OC(C)(C)C1=O` [TRIM, trimethadione, reference compound], the “Therapeutic index MCE (LD50/ED50)” value in data set [1] (setting [4]) came to 4.4. For the same molecule, the ED50 worked out at 500 mg/kg in data set [1] (po) and 251 mg/kg in data set [3] (po). The LD50 at 336 h in data set [2] and in data set [2] (setting [9]) was 2180 mg/kg throughout. Further, the “Protection index MCE (TD50/ED50)” value in the data set with male mice (mouse, in vivo, po) is 2.0. Also, the “Protection index PTZ (TD50/ED50)” value in the data set on male mice (mouse, in vivo, po) is recorded as 4.0. Moreover, the TD50 at 0.5 h in “in vivo” (in vivo) is 1000 mg/kg. For the same molecule, in data set [3] (setting [7]), the “Therapeutic index PTZ (LD50/ED50)” value was determined as 8.7.
